Tests used:
[1] = tested on: B-A17; assay: Planktonic growth with extract and antibiotic relative to growth without both (Example 14); type: cell-based
Description: (§1) Starting from the herbal composition, the corresponding water extracts (or processed samples) was prepared according to the previously described Method B using 2.06 g of the above herbal composition with 40 mL water with 100 g/L sucrose for water extraction and including the decantation step before filtration. In an independent water extract preparation without sucrose, it has been measured that 2.06 g/40 mL of herbal composition corresponds to 14.5 g/L as deduced from the weight of the lyophilized dry herbal extract.
(§2) In Example 14 we calculate the growth of the bacteria in presence of antibiotic and/or herbal mix relative to the growth in the absence of both antibiotic and herbal mix extract.

[2] = tested on: B-A21; assay: as above; type: cell-based
Description: as §1, §2

[3] = M[20C]-576 0 μg/mL, antibiotic 3.91 μg/mL
[4] = M[20C]-576 0 μg/mL, antibiotic 7.81 μg/mL
[5] = M[20C]-576 0 μg/mL, antibiotic 15.63 μg/mL
[6] = M[20C]-576 0 μg/mL, antibiotic 31.25 μg/mL
[7] = M[20C]-576 0 μg/mL, antibiotic 62.50 μg/mL
[8] = M[20C]-576 0 μg/mL, antibiotic 125 μg/mL
[9] = M[20C]-576 0 μg/mL, antibiotic 250 μg/mL
[10] = M[20C]-576 0 μg/mL, antibiotic 500 μg/mL
[11] = M[20C]-576 0 μg/mL, antibiotic 1000 μg/mL
[12] = M[20C]-576 0 μg/mL, antibiotic 2000 μg/mL
[13] = M[20C]-576 0 μg/mL, antibiotic 4000 μg/mL
[14] = M[20C]-576 90.6 μg/mL, antibiotic 3.91 μg/mL
[15] = M[20C]-576 90.6 μg/mL, antibiotic 7.81 μg/mL
[16] = M[20C]-576 90.6 μg/mL, antibiotic 15.63 μg/mL
[17] = M[20C]-576 90.6 μg/mL, antibiotic 31.25 μg/mL
[18] = M[20C]-576 90.6 μg/mL, antibiotic 62.50 μg/mL
[19] = M[20C]-576 90.6 μg/mL, antibiotic 125 μg/mL
[20] = M[20C]-576 90.6 μg/mL, antibiotic 250 μg/mL
[21] = M[20C]-576 90.6 μg/mL, antibiotic 500 μg/mL
[22] = M[20C]-576 90.6 μg/mL, antibiotic 1000 μg/mL
[23] = M[20C]-576 90.6 μg/mL, antibiotic 2000 μg/mL
[24] = M[20C]-576 90.6 μg/mL, antibiotic 4000 μg/mL
[25] = M[20C]-576 181.3 μg/mL, antibiotic 3.91 μg/mL
[26] = M[20C]-576 181.3 μg/mL, antibiotic 7.81 μg/mL
[27] = M[20C]-576 181.3 μg/mL, antibiotic 15.63 μg/mL
[28] = M[20C]-576 181.3 μg/mL, antibiotic 31.25 μg/mL
[29] = M[20C]-576 181.3 μg/mL, antibiotic 62.50 μg/mL
[30] = M[20C]-576 181.3 μg/mL, antibiotic 125 μg/mL
[31] = M[20C]-576 181.3 μg/mL, antibiotic 250 μg/mL
[32] = M[20C]-576 181.3 μg/mL, antibiotic 500 μg/mL
[33] = M[20C]-576 181.3 μg/mL, antibiotic 1000 μg/mL
[34] = M[20C]-576 181.3 μg/mL, antibiotic 2000 μg/mL
[35] = M[20C]-576 181.3 μg/mL, antibiotic 4000 μg/mL

Substance: Penicillin
- planktonic growth relative to the growth in the absence of both extract and antibiotic [1, 3]: 137%
- planktonic growth relative to the growth in the absence of both extract and antibiotic [1, 4]: 138%
- planktonic growth relative to the growth in the absence of both extract and antibiotic [1, 5]: 3%
- planktonic growth relative to the growth in the absence of both extract and antibiotic [1, 6]: 1%
- planktonic growth relative to the growth in the absence of both extract and antibiotic [1, 7]: 0%
- planktonic growth relative to the growth in the absence of both extract and antibiotic [1, 8]: −1%
- planktonic growth relative to the growth in the absence of both extract and antibiotic [1, 9]: 0%
- planktonic growth relative to the growth in the absence of both extract and antibiotic [1, 10]: 0%
- planktonic growth relative to the growth in the absence of both extract and antibiotic [1, 11]: 0%
- planktonic growth relative to the growth in the absence of both extract and antibiotic [1, 12]: 0%
- planktonic growth relative to the growth in the absence of both extract and antibiotic [1, 13]: 0%
- planktonic growth relative to the growth in the absence of both extract and antibiotic [1, 14]: 39%
- planktonic growth relative to the growth in the absence of both extract and antibiotic [1, 15]: 25%
- planktonic growth relative to the growth in the absence of both extract and antibiotic [1, 16]: 1%
- planktonic growth relative to the growth in the absence of both extract and antibiotic [1, 17]: 0%
- planktonic growth relative to the growth in the absence of both extract and antibiotic [1, 18]: 0%
- planktonic growth relative to the growth in the absence of both extract and antibiotic [1, 19]: 0%
- planktonic growth relative to the growth in the absence of both extract and antibiotic [1, 20]: 0%
- planktonic growth relative to the growth in the absence of both extract and antibiotic [1, 21]: 0%
- planktonic growth relative to the growth in the absence of both extract and antibiotic [1, 22]: 0%
- planktonic growth relative to the growth in the absence of both extract and antibiotic [1, 23]: 0%
- planktonic growth relative to the growth in the absence of both extract and antibiotic [1, 24]: 0%
- planktonic growth relative to the growth in the absence of both extract and antibiotic [1, 25]: 23%
- planktonic growth relative to the growth in the absence of both extract and antibiotic [1, 26]: 5%
- planktonic growth relative to the growth in the absence of both extract and antibiotic [1, 27]: −3%
- planktonic growth relative to the growth in the absence of both extract and antibiotic [1, 28]: −3%
- planktonic growth relative to the growth in the absence of both extract and antibiotic [1, 29]: −3%
- planktonic growth relative to the growth in the absence of both extract and antibiotic [1, 30]: −3%
- planktonic growth relative to the growth in the absence of both extract and antibiotic [1, 31]: −2%
- planktonic growth relative to the growth in the absence of both extract and antibiotic [1, 32]: −3%
- planktonic growth relative to the growth in the absence of both extract and antibiotic [1, 33]: −4%
- planktonic growth relative to the growth in the absence of both extract and antibiotic [1, 34]: −4%
- planktonic growth relative to the growth in the absence of both extract and antibiotic [1, 35]: −2%
- planktonic growth relative to the growth in the absence of both extract and antibiotic [2, 3]: 135%
- planktonic growth relative to the growth in the absence of both extract and antibiotic [2, 4]: 116%
- planktonic growth relative to the growth in the absence of both extract and antibiotic [2, 5]: 115%
- planktonic growth relative to the growth in the absence of both extract and antibiotic [2, 6]: 113%
- planktonic growth relative to the growth in the absence of both extract and antibiotic [2, 7]: 108%
- planktonic growth relative to the growth in the absence of both extract and antibiotic [2, 8]: 106%
- planktonic growth relative to the growth in the absence of both extract and antibiotic [2, 9]: 101%
- planktonic growth relative to the growth in the absence of both extract and antibiotic [2, 10]: 0%
- planktonic growth relative to the growth in the absence of both extract and antibiotic [2, 11]: 0%
- planktonic growth relative to the growth in the absence of both extract and antibiotic [2, 12]: 0%
- planktonic growth relative to the growth in the absence of both extract and antibiotic [2, 13]: 0%
- planktonic growth relative to the growth in the absence of both extract and antibiotic [2, 14]: 104%
- planktonic growth relative to the growth in the absence of both extract and antibiotic [2, 15]: 83%
- planktonic growth relative to the growth in the absence of both extract and antibiotic [2, 16]: 83%
- planktonic growth relative to the growth in the absence of both extract and antibiotic [2, 17]: 84%
- planktonic growth relative to the growth in the absence of both extract and antibiotic [2, 18]: 80%
- planktonic growth relative to the growth in the absence of both extract and antibiotic [2, 19]: 74%
- planktonic growth relative to the growth in the absence of both extract and antibiotic [2, 20]: 26%
- planktonic growth relative to the growth in the absence of both extract and antibiotic [2, 21]: 0%
- planktonic growth relative to the growth in the absence of both extract and antibiotic [2, 22]: 0%
- planktonic growth relative to the growth in the absence of both extract and antibiotic [2, 23]: 0%
- planktonic growth relative to the growth in the absence of both extract and antibiotic [2, 24]: 0%
- planktonic growth relative to the growth in the absence of both extract and antibiotic [2, 25]: 62%
- planktonic growth relative to the growth in the absence of both extract and antibiotic [2, 26]: 43%
- planktonic growth relative to the growth in the absence of both extract and antibiotic [2, 27]: 70%
- planktonic growth relative to the growth in the absence of both extract and antibiotic [2, 28]: 61%
- planktonic growth relative to the growth in the absence of both extract and antibiotic [2, 29]: 60%
- planktonic growth relative to the growth in the absence of both extract and antibiotic [2, 30]: 45%
- planktonic growth relative to the growth in the absence of both extract and antibiotic [2, 31]: −3%
- planktonic growth relative to the growth in the absence of both extract and antibiotic [2, 32]: −3%
- planktonic growth relative to the growth in the absence of both extract and antibiotic [2, 33]: −3%
- planktonic growth relative to the growth in the absence of both extract and antibiotic [2, 34]: −3%
- planktonic growth relative to the growth in the absence of both extract and antibiotic [2, 35]: −3%

From US12702691B2, “Extract of an herbal composition as antimicrobial and/or antibiofilm agent” (ALPHANOSOS S.A.S., priority 2016, dated 2026)
